In patent publication US5696239A (The Dow Chemical Company, priority 1995, dated 1997):

Experiments:
[1] = Biodistribution in a rabbit; type: in vivo; settings: Y-90, ligand 10 times molar excess
Description: Muscle was calculated using 46% of body weight.
A rabbit was injected in the same manner as the rats with a formulation having Y-90 with Y at 3×10^-4 M and the ligand of Example 10 at 10 times molar excess.

[2] = Percent complex determination, yttrium complexes (Sephadex C-25 cation exchange); type: physicochemical; settings: ligand/metal 10:1, pH 7.4
Description: Complexes were made by preparing a 0.0003M yttrium solution in water. (YCl3.6H2 O, 303.26 g/mole; Y(OAc)3, 12.1% H2 O). Radioactive YCl3 (Oakridge National Laboratories) was added to give the desired number of counts. Ten μl of ligand solution (at 0.03M) were added to 990 μl of the Y solution, giving a ligand-to-metal ratio of 1:1. (Ten times the amount of ligand solution was used for a 10:1 ligand to metal ratio.) The pH was then adjusted to 7.4 using microliter quantities of hydrochloric acid or sodium hydroxide. The solution was then tested for the amount of complexed yttrium using the cation exchange method given below.
A disposable 10 ml plastic (Biorad) column was filled with 1 to 2 ml of water-swelled Sephadex™ C-25 cation exchange resin. The water was pressure eluted to the top of the resin. Fifteen μl of the complex (or more if counts were low) were added to the top of the resin. This was followed by 2 ml of 4:1 (V:V) isotonic saline:conc. ammonium hydroxide solution as an eluent which was allowed to drip into a counting tube. This was also pressure eluted to the top of the resin. An additional 2 ml of the eluent were added and the column pressure eluted to remove all liquid. The dried resin was then placed in a third counting tube and the three tubes counted on a NaI well counter using a Canberra multichannel analyzer linked to a computer. The percent complex was determined by dividing the number of counts in the two elutions by the total counts in the elutions plus the column, all times 100. By this method, uncomplexed yttrium was retained on the column.

[3] = In vivo biodistribution of chelates in rats (% dose in organs); settings: rat; for % Injected Dose in Liver: 2 hours after i.v. injection; for % dose in the spleen / % dose in the bone / % dose in the blood / % dose in the muscle: 2 hours; for % dose in the bone: 25 times % dose in a femur; for % dose in the blood: blood 6.5% of animal weight; for % dose in the muscle: muscle 46% of body weight
Description: Also samarium was injected as samarium chloride in unchelated form.
These animals were placed in cages and fed water and food ad libitum. The animals were acclimated for at least five days before use. Prior to injection of complex, the animals were placed under a heat lamp (15 to 30 minutes) to dilate the tail vein. Then, the animal was placed in a restraining cage, the tail cleaned with an alcohol swipe, and the animal injected (50 to 200 μl) via the tail vein. After injection, the animal was placed in another cage for two hours after which time the animal was sacrificed by cervical dislocation. The animal was then dissected, the parts rinsed with deionized H2 O , patted dry, and weighed into a tared counting vial. Whatever size of injection was made, at least three standards of the same material were prepared and counted with the animal parts.
Complexes were prepared by mixing a solution of ligand and metal then adjusting the pH to 7-8. The amount of metal that was complexed to ligand was determined by cation exchange chromatography. Free metal was retained by the resin, metal in the form of a complex was not.
One-hundred μl of the complexes were injected into the tail vein of three Sprague Dawley rats. Two hours after injection, the rats were killed by cervical dislocation and samples of tissues were taken. The tissues were weighed and the amount of radiation in each tissue determined by measuring the number of counts using a NaI well counter and comparing them to standards. […] The amount in bone was 25 times the % dose in a femur. The examples below differ in the ligand, amount of ligand and amount of metal used. Non-radioactive metal was used to obtain the desired ligand to metal ratios and tracer radioactive metal was used to obtain the biodistribution.

[4] = system: osteosarcoma in the right proximal humerus; assay: Treatment of a dog with osteosarcoma; type: in vivo; settings: Sm-153 complex, ligand 300 times molar excess; I.V. 0.95 mCi Sm-153 per Kg; one week after injection
Description: A dog was presented with an osteosarcoma in the right proximal humerus and walked with significant lameness. A complex was prepared using the ligand of Example 10 with a Sm-153 solution. The concentration of Sm was 3×10^-4 M and the ligand was used with a 300 times molar excess. The specific activity of the Sm-153 was 30 mCi/ml. The dog was given an I.V. injection of this complex containing 0.95 mCi of Sm-153 per Kg body weight of the dog.

[5] = Ho-166, ligand 300 times molar excess
[6] = Sm-153, ligand 10 times molar excess
[7] = Sm-153, ligand 300 times molar excess

Compound `CC(=O)Nc1cc(C(C(=O)O)N(CC(=O)O)CC(=O)O)c(O)c(C(C(=O)O)N(CC(=O)O)CC(=O)O)c1` (centres unmarked) [Example 10, 2,6-BIS{[BIS(CARBOXYMETHYL)-AMINO](CARBOXY)METHYL}-4-(ACETAMIDO)PHENOL] has an activity in blood [1] of 0.68%, an activity in bone [1] of 59% and an activity in liver [1] of 1.1%. The activity in muscle [1] was 1.5%, the activity in spleen [1] was 0.19% and the “% Complex (10:1), Y” value [2] was 98%. For the same compound, the “% Injected Dose in Liver” value ([3]; Ho complex, ligand 300 times molar excess) was 0.26%, the “% dose in the spleen” value [3, 5] was 0.007% and the “% dose in the bone” value [3, 5] was 52.9%. The “% dose in the blood” value [3, 5] was 0.09%, the “% dose in the muscle” value [3, 5] was 1.1% and the “% Injected Dose in Liver” value ([3]; Sm complex, ligand 300 times molar excess) was 0.12%. The “% Injected Dose in Liver” value ([3]; Sm complex, ligand/metal 10:1) was 1.3%, the “% dose in the spleen” value [3, 6] was 0.01% and the “% dose in the bone” value [3, 6] was 48.5%. For the same compound, the “% dose in the blood” value [3, 6] was 0.18%, the “% dose in the muscle” value [3, 6] was 0.73% and the “% dose in the spleen” value [3, 7] was 0.005%. The “% dose in the bone” value [3, 7] was 52.7%, the “% dose in the blood” value [3, 7] was 0.05% and the “% dose in the muscle” value [3, 7] was 0.23%. The “% Injected Dose in Liver” value ([3]; Y complex, ligand/metal 10:1) was 0.39% and the “dog's gait” value [4] was “noticeably improved”.
